Measurements published in US20250282895A1, “PHARMACEUTICAL COMPOSITIONS OF CHEMOTHERAPEUTIC AGENTS BASED ON BETA-S[…]-AMINO ACID DERIVATIVES” (priority 2021, published 2025).
Structures can show the parent of a compound that is named as a salt.

Key:
[1] = Stability of Compound (1c) hydrochloride salt/SBE6.5-β-CD guest-host inclusion complex in 0.9% saline (HPLC/UV); type: physicochemical; conditions: SBE6.5-β-CD complex in 0.9% saline
Procedure: A stock solution was prepared by dissolving 68.8 mg (0.206 mmol) of Compound (1c) (free base) in about 20.0 mL of a mixture of acetonitrile/water (1:1, v/v) with vortexing in a clean graduated glass cylinder (25 mL). A solution of 0.407 mL of 0.5072 M aq. HCl (0.206 mmol, 1.0 eq.; Fluka, 318957) was added with gentle vortexing, and the resulting clear solution was further diluted to 25.0 mL with a mixture of acetonitrile/water (1:1, v/v) with gentle vortexing to afford a stock solution of Compound (1c) as a mono-HCl salt of a concentration 2.75 mg/mL. This solution was filtered through a 0.45 μm nylon syringe filter into a clean 50 mL Erlenmeyer flask. Aliquots of 2.0 mL (2× 1.0 mL; 2× 2.75 mg) of the stock solution were rapidly pipetted into clean 12 mL scintillation vials. The aliquots were frozen at −78° C. (dry ice/acetone bath) and lyophilized at about 100 mTorr for about 16 hours to provide test vials each containing 6.1 mg (0.0165 mmol) of Compound (1c) mono-hydrochloride salt (mono-HCl salt) (corresponding to 5.5 mg of Compound (1c)),free base, as a colorless powdery solid.
A cyclodextrin derivative (270 mg; SBE6.5-β-CD, Captisol®, average MW 2,163 g/mol) was added to 6.1 mg (0.0165 mmol) of(S)-3-amino-4-(5-(bis(2-chloroethyl)amino)-2-methylphenyl) butanoic acid mono hydrochloride salt (Compound (1c) mono-HCl salt) in a 12 mL glass vial and dissolved in 3 mL to 4 mL of double-distilled water by vortexing for about 30 sec to provide a clear, colorless solution. The solution was filtered through a 0.45 μm nylon syringe filter into a 12 mL glass vial. The filter was washed twice with double-distilled water (each about 0.5 mL) to provide a clear colorless solution having a pH from 4.4 to 4.7. The filtered solution was frozen at −78° C. (dry ice/acetone bath) and the solvent was lyophilized off at about 100 mTorr for about 16 hours to provide a colorless powdery solid consisting of 6.1 mg (0.0165 mmol) of Compound (1c) mono-HCl salt (corresponding to 5.5 mg of Compound (1c) as free base) and 270 mg of SBE6.5-β-CD, Captisol®). Several vials with the cyclodextrin derivative/Compound (1c) mono-HCl salt guest-host inclusion complex were prepared according to this method.
The cyclodextrin derivative/Compound (1c) mono-HCl salt guest-host inclusion complex was reconstituted by dissolving the guest-host inclusion complex in 0.86 mL of 0.9% saline to provide 1.0 mL of a solution having a nominal concentration of 6.1 mg/mL of Compound (1c) mono-HCl salt guest-host inclusion complex which equates to a nominal concentration of 5.5 mg/mL of the Compound (1c)) guest-host inclusion complex.
A 0.5 mL aliquot of this solution was diluted with 5.0 mL of 0.9% saline, and the pH adjusted with 5 μL of a saturated aqueous NaHCO3 solution to provide 5.5 mL of a clear, colorless solution having a nominal concentration of 0.5 mg/mL Compound (1c) compound and a pH from 5.3 to 5.5.
A 1.0 mL aliquot of the reconstituted solution was diluted with 4.5 mL of 0.9% saline, and the pH was adjusted with about 10 μL of a saturated aqueous NaHCO3 solution to provide 5.5 mL of a clear, colorless solution having a nominal concentration of 1.0 mg/mL of Compound (1c) and a pH of 5-6.
A 1.0 mL aliquot of the reconstituted solution was diluted with 1.75 mL of 0.9% saline, and the pH was adjusted with about 10 μL of a saturated aqueous NaHCO3 solution to provide 2.75 mL of a clear, colorless solution having a nominal concentration of 2.0 mg/mL of Compound (1c) and a pH of 5-6.
The solutions were placed in glass vials and stored at either room temperature (about 25° C.) or refrigerated (about 0° C.), and the amount of Compound (1c) was measured at intervals using analytical high pressure liquid chromatography coupled to a UV detector (HPLC/UV) as described in Example 4.

[2] = Stability (impurities) of Compound (1c):SBE6.5-β-CD formulations at different pH values; type: physicochemical; conditions: listed as Compound (1c) HCl salt, mono hydrochloride salt
Procedure: The stability of Compound (1c) in formulations containing a Compound (1c): SBE6.5-β-CD guest-host inclusion complex at different pH was determined by analytical HPLC/UV. The mass ratio of Compound (1c) to SBE6.5-β-CD was either 1:54 or 1:50.
To prepare the formulations, SBE6.5-β-CD was dissolved in water for injection (WFI) by continuous stirring until a clear solution was obtained. The solution was acidified by addition of 1 N HCl. Compound (1c) was dissolved in the acidified aqueous SBE6.5-β-CD solution and water was added at Q.S. to the final volume to prepare a solution with a nominal concentration of 5.0 mg/mL of Compound (1c). The pH was adjusted with 1 N HCl to the values shown in Table 7 which corresponded to the pH of the final formulation after reconstitution with 0.9% saline. The solution was filtered through a 0.22 μm syringe filter followed by lyophilization to dryness affording a colorless powdery solid. The freeze-dried lyophilizate was reconstituted with 0.9% saline to the nominal target concentration of 5.0 mg/mL of Compound (1c). […]
Analytical HPLC/UV was performed on a HPLC chromatograph equipped with a UV detector, a Waters Xbridge® C18 column (4.6× 150 mm; 5 μm) operated at 30° C. and a personal computer for data computation. Gradients of 0.01 M potassium dihydrogen phosphate solution (KH2PO4) solution adjusted to pH to 3.0 with phosphoric acid (H3PO4): acetonitrile=850:150 (v/v) (solvent A) and acetonitrile (MeCN; solvent B) were used in the analytical HPLC/UV analyses. The needle wash was performed with 50% aqueous acetonitrile. Prior to injection into the HPLC/UV system (10 μL injection volume), samples were diluted to a nominal concentration of 0.5 mg/mL of Compound (1c) with a 0.9 M sodium chloride (NaCl) and 0.1 N hydrochloric acid (HCl) diluent. The diluent solution was prepared from 5.26 g (90.0 mmol) of sodium chloride and 850 μL of concentrated hydrochloric acid (HCl) (36-38 wt-%, d 1.184, 1.00 g, 10.2 mmol) diluted to 100 mL solution.
The HPLC/UV method used employed a gradient from 10 vol-% of solvent B to 100 vol-% of solvent B with a 36 min runtime at a flow rate of 1.5 mL/min and UV detection at 2=220 nm.

[3] = Compound (1c):SBE6.5-β-CD 1:54, pH 4.1, 0 h, 5.0 mg/mL in 0.9% saline
[4] = Compound (1c):SBE6.5-β-CD 1:54, pH 4.1, Cake

SMILES: Cc1ccc(N(CCCl)CCCl)cc1C[C@H](N)CC(=O)O [Compound (1c)•HCl, (S)-3-amino-4-(5-(bis(2-chloroethyl)amino)-2-methylphenyl) butanoic acid mono hydrochloride salt]
- Compound (1c) (% AUC) ([1]; nominal 0.125 mg/mL, 0° C., 31 hours): 93 % AUC
- Compound (1c) (% AUC) ([1]; nominal 0.125 mg/mL, 25° C., 2 hours): 98 % AUC
- Compound (1c) (% AUC) ([1]; nominal 0.5 mg/mL, 0° C., 9 hours): 99 % AUC
- Compound (1c) (% AUC) ([1]; nominal 0.5 mg/mL, 25° C., 2 hours): 97 % AUC
- Compound (1c) (% AUC) ([1]; nominal 1.0 mg/mL, 0° C., 31 hours): 100 % AUC
- Compound (1c) (% AUC) ([1]; nominal 1.0 mg/mL, 25° C., 2 hours): 91 % AUC
- Compound (1c) (% AUC) ([1]; nominal 2.0 mg/mL, 0° C., 31 hours): 91 % AUC
- Compound (1c) (% AUC) ([1]; nominal 2.0 mg/mL, 25° C., 2 hours): 99 % AUC
- Impurity (% AUC) RRT 0.36 [2, 3]: 1.51 % AUC
- Impurity (% AUC) RRT 1.31 [2, 3]: 0.18 % AUC
- Impurity (% AUC) Total [2, 3]: 2.2 % AUC
- Impurity (% AUC) RRT 0.36 [2, 4]: 1.51 % AUC
- Impurity (% AUC) RRT 1.31 [2, 4]: 0.18 % AUC
- Impurity (% AUC) Total [2, 4]: 2.13 % AUC
